The record followed here is ChEMBL document CHEMBL1148974, “New eudesmane derivatives from Melampodium camphoratum from the Suriname rainforest” (J Nat Prod, 2004).

Structures are written as SMILES. Values after ≈ are worked out from the molar mass of the structure shown. Where only a bound is given, the exact number is not on record here.

The subject of the assay is Plasmodium falciparum. The assay can be described thus: Antimalarial activity as reduced heme degradation in Plasmodium falciparum infected human erythrocytes. Format: functional, organism-based.
In general, DC50 refers to the midpoint of the concentration-degradation curve. A high value points to degradation only at high concentration. Molecule `C=C1CCC[C@]2(C)CC[C@@H](C(C)C)[C@H](OC(=O)/C=C/c3ccc(OC(=O)CCCCCCCCCCCCCCCCC)cc3)[C@@H]12` yielded a DC50 of 110 µg/mL (≈ 173 µM). To `C=C1CCC[C@]2(C)CC[C@@H](C(C)C)[C@H](OC(=O)/C=C/c3ccc(OC(=O)CCCCCCC/C=C\CCCCCC)cc3)[C@@H]12` belongs 52 µg/mL (≈ 86 µM); to `C=C1CCC[C@]2(C)CC[C@@H](C(C)C)[C@H](OC(=O)/C=C/c3ccc(OC(=O)CCCCCCCCCCCCCCC)cc3)[C@@H]12`, 75 µg/mL (≈ 124 µM); to `C=C1CCC[C@]2(C)CC[C@@H](C(C)C)[C@H](OC(=O)/C=C/c3ccc(O)cc3)[C@@H]12`, greater than 200 µg/mL. Regarding `C=C1CCC[C@]2(C)CC[C@@H](C(C)C)[C@H](OC(=O)/C=C/c3ccc(OC)cc3)[C@@H]12`, the DC50 was determined as 48 µg/mL (≈ 125 µM).

Consider `C=C1CCC[C@]2(C)CC[C@@H](C(C)C)[C@H](OC(=O)/C=C\c3ccc(O)cc3)[C@@H]12`, for which the DC50 was greater than 200 µg/mL. In the case of `C=C1CCC[C@]2(C)CC[C@@H](C(C)C)[C@H](OC(=O)/C=C\c3ccc(OC(C)=O)cc3)[C@@H]12` it was greater than 200 µg/mL; in that of `C=C[C@H]1CN2CC[C@H]1C[C@H]2[C@H](O)c1ccnc2ccc(OC)cc12` [QUININE], 1.3 µg/mL (≈ 4.01 µM).
